Source: patent publication US10160762B2, “6-alkyl dihydropyrazolopyrimidinone compounds as PDE2 inhibitors” (Merck Sharp & Dohme Corp., priority 2015, dated 2018)
Where two headings read alike, the source gives them in different places.

Molecular target: T1, human PDE2A1 (Homo sapiens, UniProt O00408)
T1 construct: GST; purchased BPS Bioscience (San Diego, Calif.) 60020; host or cells: insect cells
Assay: IMAP FP PDE assay, human PDE2A1
Assay type: biochemical
Summary of the method: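 GST-tagged human PDE2A1 from insect cells; substrate 50 nM FAM-cAMP containing 1000 nM cGMP in Tris pH 7.2/MgCl2/DTT buffer, enzyme giving 20% conversion. 60 min at room temperature, IMAP binding reagent, fluorescence polarization read. Apparent Ki from FP readings using apparent KM 10,000 nM; ten-point 3-fold titrations.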

[1] = Lab A, read-out: Human PDE2 Ki (nM) Lab A

T1 sequence (O00408 1-920 isoform O00408-2): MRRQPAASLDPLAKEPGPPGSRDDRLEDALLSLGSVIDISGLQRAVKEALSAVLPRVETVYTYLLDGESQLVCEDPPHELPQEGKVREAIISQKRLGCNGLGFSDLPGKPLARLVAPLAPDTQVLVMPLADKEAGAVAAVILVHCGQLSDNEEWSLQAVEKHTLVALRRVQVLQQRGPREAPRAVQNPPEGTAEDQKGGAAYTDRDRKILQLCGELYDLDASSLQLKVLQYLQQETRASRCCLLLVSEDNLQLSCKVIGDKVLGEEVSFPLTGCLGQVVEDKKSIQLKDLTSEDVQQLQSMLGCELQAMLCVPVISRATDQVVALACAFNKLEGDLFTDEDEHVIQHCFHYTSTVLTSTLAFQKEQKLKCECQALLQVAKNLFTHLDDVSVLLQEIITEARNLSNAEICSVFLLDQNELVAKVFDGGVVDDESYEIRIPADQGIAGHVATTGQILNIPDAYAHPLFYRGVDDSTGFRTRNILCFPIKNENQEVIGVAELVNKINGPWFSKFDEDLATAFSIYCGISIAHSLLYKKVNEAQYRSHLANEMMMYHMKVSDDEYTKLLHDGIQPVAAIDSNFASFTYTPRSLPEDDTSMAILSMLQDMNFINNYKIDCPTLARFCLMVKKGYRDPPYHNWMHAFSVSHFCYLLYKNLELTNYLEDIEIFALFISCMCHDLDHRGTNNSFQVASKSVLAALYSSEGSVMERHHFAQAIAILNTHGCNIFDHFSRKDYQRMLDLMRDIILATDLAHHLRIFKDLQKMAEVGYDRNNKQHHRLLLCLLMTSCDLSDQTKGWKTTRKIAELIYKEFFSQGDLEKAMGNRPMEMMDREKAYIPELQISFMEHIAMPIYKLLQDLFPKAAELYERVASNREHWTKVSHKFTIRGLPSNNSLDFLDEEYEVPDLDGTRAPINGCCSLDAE

| SMILES | Ki [1] | Ki (Lab B, read-out: Human PDE2 Ki (nM) Lab B) |
| --- | --- | --- |
| Cc1nc2c(c(C(O)C(F)(F)F)nn2C(C)c2ccc(C(F)(F)F)cc2)c(=O)[nH]1 (stereo not shown) [Example 327, 6-Methyl-3-(2,2,2-trifluoro-1-hydroxyethyl)-1-{1-[4-(trifluoromethyl)phenyl]ethyl}-1,5-dihydro-4H-pyrazolo[3,4-d]pyrimidin-4-one] | 92 nM |  |
| Cc1nc2c(c(C(C)O)nn2C(C)c2ccc(C(F)(F)F)cc2)c(=O)[nH]1 (stereo not shown) [Example 328, 3-(1-Hydroxyethyl)-6-methyl-1-{1-[4-(trifluoromethyl)phenyl]ethyl}-1,5-dihydro-4H-pyrazolo[3,4-d]pyrimidin-4-one] | ~11 nM | 31 nM |
| CCC(CCCc1ccccc1)n1nc(C)c2c(=O)[nH]c(C)nc21 (stereo not shown) [Example 338, 1-(1-ethyl-4-phenylbutyl)-3,6-dimethyl-1,5-dihydro-4H-pyrazolo[3,4-d]pyrimidin-4-one] | 73 nM |  |
